# ChEMBL document CHEMBL4477264, “Amino acid amides of piperic acid (PA) and 4-ethylpiperic acid (EPA) as NorA efflux pump inhibitors of Staphylococcus aureus” (2016)
# Activity calls are given as the source filed them. No cut-off for these calls is given here.
# Columns and labels:
# [1] = biological target: T1, Quinolone resistance protein NorA (Staphylococcus aureus) (UniProt P0A0J7); assay: Inhibition of NorA efflux pump overexpressed in Staphylococcus aureus 1199B assessed as concentration required for four-fold reduction in ciprofloxacin MIC measured after 24 hrs by broth checkerboard method relative to control
# T1 sequence (whole entry): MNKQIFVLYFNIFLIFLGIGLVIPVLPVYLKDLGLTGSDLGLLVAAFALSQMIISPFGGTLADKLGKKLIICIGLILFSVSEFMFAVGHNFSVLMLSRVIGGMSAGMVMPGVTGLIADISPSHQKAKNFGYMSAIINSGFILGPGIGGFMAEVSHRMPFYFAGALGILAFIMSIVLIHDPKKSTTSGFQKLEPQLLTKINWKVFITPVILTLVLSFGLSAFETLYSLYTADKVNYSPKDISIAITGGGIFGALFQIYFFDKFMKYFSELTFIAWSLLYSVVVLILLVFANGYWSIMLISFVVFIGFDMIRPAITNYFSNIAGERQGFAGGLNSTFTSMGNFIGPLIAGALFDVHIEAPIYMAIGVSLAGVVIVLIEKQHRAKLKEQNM
# [2] = biological target: T1, Quinolone resistance protein NorA (Staphylococcus aureus); assay: Inhibition of NorA efflux pump overexpressed in Staphylococcus aureus 1199B assessed as fold reduction in ciprofloxacin MIC at 12.5 ug/ml measured after 24 hrs by broth checkerboard method
# [3] = system: Staphylococcus aureus; assay: Antibacterial activity against Staphylococcus aureus 1199B overexpressing NorA efflux pump measured after 24 hrs by broth checkerboard method; assay type: functional
# [4] = biological target: T1, Quinolone resistance protein NorA (Staphylococcus aureus); assay: Inhibition of NorA efflux pump overexpressed in Staphylococcus aureus 1199B assessed as fold reduction in ethidium bromide MIC at 12.5 ug/ml measured at every 3 mins interval for 30 mins by fluorescence analysis
# [5] = biological target: T1, Quinolone resistance protein NorA (Staphylococcus aureus); assay: Inhibition of NorA efflux pump in Staphylococcus aureus 1199 assessed as fold reduction in ethidium bromide MIC at […] measured at every 3 mins interval for 30 mins by fluorescence analysis; details: 12.5 ug/ml
# [6] = system: Staphylococcus aureus; assay: Antibacterial activity against wild-type Staphylococcus aureus 1199 expressing NorA efflux pump measured at every 3 mins interval for 30 mins by fluorescence analysis; assay type: functional
# [7] = system: Staphylococcus aureus; assay: Antibacterial activity against Staphylococcus aureus 1199B overexpressing NorA efflux pump measured at every 3 mins interval for 30 mins by fluorescence analysis; assay type: functional
# [8] = biological target: T1, Quinolone resistance protein NorA (Staphylococcus aureus); assay: Inhibition of NorA efflux pump in Staphylococcus aureus 1199 assessed as concentration required for four-fold reduction in ethidium bromide MIC measured at every 3 mins interval for 30 mins by fluorescence analysis
# [9] = biological target: T1, Quinolone resistance protein NorA (Staphylococcus aureus); assay: Inhibition of NorA efflux pump overexpressed in Staphylococcus aureus 1199B assessed as concentration required for four-fold reduction in ethidium bromide MIC measured at every 3 mins interval for 30 mins by fluorescence analysis
# [10] = biological target: T1, Quinolone resistance protein NorA (Staphylococcus aureus); assay: Inhibition of NorA efflux pump overexpressed in Staphylococcus aureus 1199B assessed as reduction in EtBr efflux measured over 30 mins by fluorescence analysis
# [11] = biological target: T1, Quinolone resistance protein NorA (Staphylococcus aureus); assay: Inhibition of NorA efflux pump overexpressed in Staphylococcus aureus 1199B assessed as increase in EtBr accumulation at 50 ug/ml measured after 30 mins by fluorescence analysis
# [12] = biological target: T1, Quinolone resistance protein NorA (Staphylococcus aureus); assay: Potency index, ratio of SK-20 MEC to compound MEC for Staphylococcus aureus 1199B overexpressing NorA efflux pump assessed as concentration required for four-fold reduction in ciprofloxacin MIC
SMILES,MEC [1] [µg/mL],fold change (FC) [2],MIC [3] [µg/mL],fold change (FC) [4],fold change (FC) [5],MIC [6] [µg/mL],MIC [7] [µg/mL],MEC [8] [µg/mL],MEC [9] [µg/mL],inhibition [10],inhibition [11],Ratio [12]
CCC(/C=C/C(=O)N1CCC(CC(=O)NC(C)(C)C(=O)OC)(NC(C)=O)CC1)=C\c1ccc2c(c1)OCO2,25,2,> 50,,,,,,,,,
CCC(/C=C/C(=O)N[C@@H](Cc1ccccc1)C(=O)OC)=C\c1ccc2c(c1)OCO2,25,2,> 50,4,2,> 50,> 50,> 50,6.25,,,
COC(=O)[C@@H](NC(=O)/C=C/C=C/c1ccc2c(c1)OCO2)C(C)(C)C,12.5,4,> 50,2,0,> 50,> 50,50,50,,,
CCC(/C=C/C(=O)N1CCCCC1)=C\c1ccc2c(c1)OCO2,12.5,4,> 50,4,0,> 50,> 50,25,12.5,,,
CCC1CCC(CC(=O)OC)(NC(=O)/C=C/C=C/c2ccc3c(c2)OCO3)CC1 (stereo unspecified),50,0,> 50,,,,,,,,,
O=C(/C=C/C=C/c1ccc2c(c1)OCO2)N1CCCCC1 [PIPERINE],> 50,0,> 50,2,0,> 50,> 50,> 50,,,,
COC(=O)CC1(CNC(=O)/C=C/C=C/c2ccc3c(c2)OCO3)CCCCC1,12.5,4,> 50,2,0,> 50,> 50,25,50,,,
CCC(/C=C/C(=O)NC1(CC(=O)OC)CCCCC1)=C\c1ccc2c(c1)OCO2,50,2,> 50,,,,,,,,,
CCC(/C=C/C(=O)N[C@@H](CC(C)C)C(=O)OC)=C\c1ccc2c(c1)OCO2,> 50,0,> 50,,,,,,,,,
CCC(/C=C/C(=O)N[C@@H](Cc1c[nH]c2ccccc12)C(=O)OC)=C\c1ccc2c(c1)OCO2,,,,,,> 50,,,,,,
COC(=O)CC1(NC(=O)/C=C/C=C/c2ccc3c(c2)OCO3)CCCCC1,> 50,0,> 50,,,,,,,,,
CCC(/C=C/C(=O)N[C@H](C(=O)OC)C(C)(C)C)=C\c1ccc2c(c1)OCO2,12.5,4,> 50,2,2,> 50,> 50,> 50,25,,,
CCC(/C=C/C(=O)N[C@H](C(=O)OC)C(C)C)=C\c1ccc2c(c1)OCO2,> 50,0,> 50,,,,,,,,,
COC(=O)CC1(NC(=O)/C=C/C=C/c2ccc3c(c2)OCO3)CCC(C(C)(C)C)CC1 (stereo unspecified),> 50,0,> 50,,,,,,,,,
O=C(O)/C=C/C=C/c1ccc2c(c1)OCO2 [PIPERIC ACID],> 50,0,> 50,,,,,,,,,
CCC(/C=C/C(=O)N[C@@H](C)C(=O)OC)=C\c1ccc2c(c1)OCO2,> 50,0,> 50,,,,,,,,,
CCC(/C=C/C(=O)NCC1(CC(=O)OC)CCCCC1)=C\c1ccc2c(c1)OCO2,25,2,> 50,,,,,,,,,
CCCCC(=O)NC1(CC(=O)NNc2ccccc2)CCN(C(=O)/C=C/C(=C/c2ccc3c(c2)OCO3)CC)CC1,6.25,4,> 50,8,4,> 50,> 50,12.5,3.12,Dose-dependent effect,Active,
CCC(/C=C/C(=O)N1CCC[C@@H]1C(=O)OC)=C\c1ccc2c(c1)OCO2,3.12,16,> 50,4,2,> 50,> 50,25,3.12,Dose-dependent effect,Active,4
CCC(/C=C/C(=O)NC1(CC(=O)OC)CCC(C(C)(C)C)CC1)=C\c1ccc2c(c1)OCO2 (stereo unspecified),> 50,0,> 50,,,,,,,,,
CCC(/C=C/C(=O)NC1(CC(=O)OC)CCC(CC)CC1)=C\c1ccc2c(c1)OCO2 (stereo unspecified),> 50,0,> 50,,,,,,,,,
CCC(/C=C/C(=O)O)=C\c1ccc2c(c1)OCO2,> 50,0,> 50,,,,,,,,,
